These results are taken from ChEMBL document CHEMBL1201862, “PubChem BioAssay data set” (2004).

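1) Cells in 96-well plates. 2) Compound, 48 h, 5 concentrations. 3) Linear interpolation between surrounding doses. 4) Unreached endpoint = highest concentration. GI50: concentration for 50% inhibition of growth.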 The source made the active and inactive calls. Rule as the data show it: active = GI50 up to about 1.1 µM and inactive = higher. Some results are limits rather than exact numbers.

Test systems include KM-20L2; HOP-18; XF498; LXFL 529; DMS-114; SNB-78; DLD-1; DMS-273; RXF 631.
What all share (assay): growth of human tumour cells (NCI), 48 h

As for `Nc1nnc(NC(=O)C2=NS(=O)(=O)c3cc(S(N)(=O)=O)c(Cl)cc3N2)[nH]1`, the GI50 in the assay with KM-20L2, in the assay on HOP-18, with XF498, with LXFL 529, in the assay with DMS-114 and in the assay on SNB-78 was > 100 µM (inactive) each time. The GI50 with DLD-1 is > 100 µM (inactive).

As to `CC1(C)OC2OC(/C=C/[N+](=O)[O-])C3OC(C)(C)OC3C2O1` (stereo unspecified), the GI50 is 19.5 µM (inactive) in the assay on KM-20L2; 23.1 µM (inactive) in the assay with HOP-18; 17.3 µM (inactive) in the assay with DMS-273; 2.76 µM (inactive) in the assay on LXFL 529; 18.6 µM (inactive) with DMS-114; 14.2 µM (inactive) with SNB-78. Besides, the GI50 in the assay on DLD-1 was 1.61 µM (inactive).

Take `O=C(CCc1cc(-c2ccc(F)cc2)n[nH]1)N(Cc1ccccc1)Cc1ccccc1`: the GI50 in the assay with KM-20L2, with HOP-18, in the assay with DMS-273, with XF498, in the assay on LXFL 529 and in the assay on DMS-114 was > 100 µM (inactive) each time. Also, in the assay on SNB-78, the GI50 was > 100 µM (inactive).

As to `O=C(Cn1ccnc1[N+](=O)[O-])c1ccccc1`, the GI50 with KM-20L2, in the assay on DMS-273, in the assay with XF498, in the assay with LXFL 529 and in the assay on DLD-1 was > 100 µM (inactive) in each case.

For the compound `CN(C)C(=O)CC(C(=O)O)c1c[nH]c2ccccc12` (stereo unspecified), the GI50 with KM-20L2, in the assay on RXF 631, in the assay on DMS-273, in the assay with LXFL 529, in the assay on DMS-114 and in the assay with DLD-1 was > 100 µM (inactive) each time.

For `COc1cccc(N2C(=O)c3c(c4[nH]c5ccccc5c4c4ccc(C(C)(C)C)cc34)C2=O)c1`, the GI50 in the assay on KM-20L2, in the assay with HOP-18, with RXF 631, in the assay with DMS-273, in the assay on XF498 and in the assay on LXFL 529 was > 100 µM (inactive) each time. In addition, the GI50 in the assay on DMS-114, with SNB-78 and in the assay on DLD-1 was > 100 µM (inactive) each time.

As for `CCN(CC)C(=O)CCn1cc(F)c(=O)[nH]c1=O`, the GI50 with KM-20L2, in the assay on DMS-273, in the assay with XF498, in the assay on LXFL 529, with DMS-114 and in the assay with SNB-78 was > 100 µM (inactive) throughout.

In the case of `OCC(O)C(OC1OC(CO)C(O)C(O)C1O)c1nn(-c2ccccc2)c2nc3cc(Cl)c(Cl)cc3cc12` (stereo unspecified), the GI50 with KM-20L2, with RXF 631, in the assay on XF498, in the assay with LXFL 529, with SNB-78 and in the assay on DLD-1 was > 100 µM (inactive) in each case.

For the compound `COc1ccc(Nc2nc3c(N)cc(C(F)(F)F)cc3nc2-c2ccccc2)cc1OC`, the GI50 is 36.9 µM (inactive) with KM-20L2; 13.7 µM (inactive) in the assay with HOP-18; 33.5 µM (inactive) in the assay on DMS-273; 14.8 µM (inactive) in the assay on XF498; 15.3 µM (inactive) with LXFL 529; 28.3 µM (inactive) in the assay on SNB-78. Also, the GI50 in the assay with DLD-1 was 22.7 µM (inactive).

`CCOC(=O)C1=C(C)C2C3C(=O)NC(=O)C3C1(C)C1C(=O)NC(=O)C21` (stereo unspecified): the GI50 is > 100 µM (inactive) in the assay on KM-20L2; 3.49 µM (inactive) with HOP-18; > 100 µM (inactive) in the assay with DMS-273; > 100 µM (inactive) with LXFL 529; > 100 µM (inactive) in the assay on DMS-114; > 100 µM (inactive) with SNB-78. Moreover, the GI50 with DLD-1 is > 100 µM (inactive).

As to `NNC(=S)N/N=C/C(=C/Nc1ccccc1)[N+](=O)[O-]`, the GI50 in the assay with KM-20L2, in the assay with RXF 631, in the assay with XF498, in the assay with LXFL 529, with DMS-114 and in the assay with DLD-1 was > 100 µM (inactive) each time.

On to `O=c1c2cc(Br)ccc2nc(-c2ccccc2)n1NCC1(O)OCC(O)C(O)C1O` (stereo unspecified), for which the GI50 in the assay with KM-20L2 is > 100 µM (inactive); with DMS-273, > 100 µM (inactive); in the assay on LXFL 529, 92 µM (inactive); in the assay with DMS-114 it was > 100 µM (inactive); with SNB-78, > 100 µM (inactive).

In the case of `Cc1cc([N+](=O)[O-])ccc1Sc1c2ccccc2nc2ccccc12`, the GI50 is 31.4 µM (inactive) with KM-20L2; 64 µM (inactive) in the assay with HOP-18; 33 µM (inactive) in the assay on DMS-273; 17.5 µM (inactive) in the assay on XF498; 18.7 µM (inactive) with LXFL 529; 25.4 µM (inactive) in the assay on DLD-1.

Regarding `N#CC(C(=N/NC(N)=S)/C(=N/NC(N)=S)C(C#N)c1ccc(Cl)cc1)c1ccc(Cl)cc1` (stereo unspecified), the GI50 is > 100 µM (inactive) with KM-20L2; 94.2 µM (inactive) in the assay with HOP-18; > 100 µM (inactive) with DMS-273; > 100 µM (inactive) in the assay with XF498; 49.7 µM (inactive) with LXFL 529; > 100 µM (inactive) in the assay on DMS-114. The GI50 is 35.6 µM (inactive) in the assay on SNB-78 and 34.1 µM (inactive) in the assay with DLD-1.

`C#CCN1CCN(C(=S)N/N=C(\C)c2ccccn2)CC1`: the GI50 was < 0.0248 µM (active) with KM-20L2; 2.72 µM (inactive) in the assay on HOP-18; < 0.0161 µM (active) in the assay on DMS-273; 0.01 µM (active) in the assay with XF498; 0.001 µM (active) with LXFL 529; 0.01 µM (active) in the assay on DMS-114. Moreover, the figures for the GI50 in the assay on SNB-78 and in the assay with DLD-1 were 5.37 µM (inactive) and 0.01 µM (active), respectively.

With `COC1=C(C(=O)OC(C)(C)C)C23CCCCC2(C(C(=O)OC(C)(C)C)=C(OC)C3C(=O)OC(C)(C)C)C1C(=O)OC(C)(C)C` (stereo unspecified), the GI50 in the assay with KM-20L2 is 16.7 µM (inactive); in the assay with HOP-18 it was 12.5 µM (inactive); in the assay on RXF 631 it was 8.15 µM (inactive); in the assay with DMS-273, 10.1 µM (inactive); in the assay on XF498 it was 38.1 µM (inactive); in the assay with LXFL 529 it was 23.2 µM (inactive). Moreover, the values for the GI50 with DMS-114, with SNB-78 and in the assay with DLD-1 were 9.84 µM (inactive), 72.9 µM (inactive) and 39.9 µM (inactive), respectively.

As to `CC1=N/C(=C\c2ccc(/C=C3/N=C(C)OC3=O)cc2)C(=O)O1`, the GI50 in the assay on KM-20L2, in the assay on HOP-18, with DMS-273, in the assay with XF498, in the assay with LXFL 529 and in the assay with DMS-114 was > 100 µM (inactive) each time. The GI50 with SNB-78 and with DLD-1 was > 100 µM (inactive) throughout.

Take `COc1c(C)c2c(c3c1c(=O)c1ccccc1n3C)C=CC(C)(C)O2`: the GI50 is 16.4 µM (inactive) with KM-20L2; 38.1 µM (inactive) in the assay on HOP-18; 14.8 µM (inactive) in the assay with DMS-273; 24.9 µM (inactive) in the assay with XF498; 26 µM (inactive) in the assay with LXFL 529; 14.5 µM (inactive) with DMS-114. For the same compound, the GI50 in the assay with SNB-78 was 31.7 µM (inactive); with DLD-1, 34.5 µM (inactive).

Regarding `[N-]=[N+]=Nc1cc(=O)n(-c2ccccc2)c2ccccc12`, the GI50 in the assay on HOP-18, with DMS-273, in the assay with LXFL 529, with DMS-114 and with DLD-1 was > 100 µM (inactive) throughout.

`COc1ccc(C(C)Nc2cc(OC)c(OC)c(OC)c2)cc1` (stereo unspecified): the GI50 in the assay with KM-20L2 was 2.57 µM (inactive); with HOP-18, > 100 µM (inactive); in the assay with DMS-273, 1.82 µM (inactive); with XF498, 6.89 µM (inactive); in the assay with LXFL 529, 6.38 µM (inactive); in the assay with SNB-78, 4.08 µM (inactive). Also, the GI50 in the assay on DLD-1 is 5.81 µM (inactive).

Consider `N#Cc1ccccc1NC(=O)/C(=N\N)C(C(=O)c1ccncc1)C1OC(=O)c2ccccc21` (stereo unspecified), for which the GI50 with KM-20L2, in the assay on XF498 and with LXFL 529 was > 100 µM (inactive) throughout.

As to `CCC(/C(=N\Nc1c(Cl)cc(Cl)cc1Cl)c1ccccc1)n1ccnc1C` (stereo unspecified), the GI50 with KM-20L2 was 4.61 µM (inactive); with HOP-18 it was 14.9 µM (inactive); in the assay with RXF 631, 9.64 µM (inactive); in the assay on DMS-273, 4.6 µM (inactive); in the assay with LXFL 529, 11.7 µM (inactive); in the assay with DMS-114 it was 6.58 µM (inactive). The values for the GI50 with SNB-78 and with DLD-1 were 19.1 µM (inactive) and 4.22 µM (inactive), respectively.

Turning to `N#CCCN(CCC#N)c1ccc(C(Sc2ccccc2)C(NC(=O)c2cc([N+](=O)[O-])ccc2Cl)C(=O)Sc2ccccc2)cc1` (stereo unspecified), the GI50 is 2.57 µM (inactive) with KM-20L2; 24 µM (inactive) with HOP-18; 2.03 µM (inactive) with RXF 631; 1.56 µM (inactive) in the assay with DMS-273; 8.67 µM (inactive) in the assay on XF498; 3.69 µM (inactive) with LXFL 529. Also, the GI50 with DMS-114 was 2.37 µM (inactive); with SNB-78, 4.66 µM (inactive); with DLD-1, 2.52 µM (inactive).

For `O=C(O)CCC(=O)OCN1C(=O)C2C3C=CC(C2C1=O)C1C2C(=O)N(COC(=O)CCC(=O)O)C(=O)C2C31` (stereo unspecified), the GI50 is > 100 µM (inactive) with KM-20L2; 76.9 µM (inactive) in the assay on HOP-18; > 43.2 µM (inactive) in the assay on DMS-273; > 100 µM (inactive) in the assay on XF498; > 100 µM (inactive) in the assay on LXFL 529; > 48.1 µM (inactive) with DMS-114. Also, the GI50 in the assay with SNB-78 is > 100 µM (inactive); in the assay with DLD-1 it was > 57.7 µM (inactive).

`COc1ccc(/C(=C\c2cc(OC)c(OC)c(OC)c2)C(=O)O)cc1`: the GI50 was 21 µM (inactive) in the assay on KM-20L2; > 100 µM (inactive) with HOP-18; 23.3 µM (inactive) in the assay with DMS-273; 11.1 µM (inactive) in the assay on XF498; 41 µM (inactive) in the assay with LXFL 529; 25.2 µM (inactive) in the assay with DMS-114. Besides, the GI50 in the assay with SNB-78 was 39 µM (inactive); with DLD-1, 40.1 µM (inactive).

For `Cc1cccc(NC(=O)c2cccc([N+](=O)[O-])c2O)c1C`, the GI50 with KM-20L2 is 21.8 µM (inactive); in the assay with HOP-18 it was 4.74 µM (inactive); with DMS-273, 22.2 µM (inactive); in the assay on XF498 it was 20.3 µM (inactive); in the assay with LXFL 529, 34 µM (inactive); in the assay with DMS-114 it was 32.4 µM (inactive). In addition, the results for the GI50 in the assay on SNB-78 and with DLD-1 were 85.5 µM (inactive) and 27.3 µM (inactive), respectively.
